Earlier results, collected in patent US20230218508A1, “BIODEGRADABLE COMPOSITIONS AND IMPLANTS” (RE-VANA THERAPEUTICS LTD, priority 2020, published 2023).

B1: Ranibizumab (antibody, chains of the INN, looked up, V domains shown)
VH: EVQLVESGGGLVQPGGSLRLSCAASGYDFTHYGMNWVRQAPGKGLEWVGWINTYTGEPTYAADFKRRFTFSLDTSKSTAYLQMNSLRAEDTAVYYCAKYPYYYGTSHWYFDVWGQGTLVTVSS
VL: DIQLTQSPSSLSASVGDRVTITCSASQDISNYLNWYQQKPGKAPKVLIYFTSSLHSGVPSRFSGSGSGTDFTLTISSLQPEDFATYYCQQYSTVPWTFGQGTKVEIK
modifications: Fab
notes: Marketed antibody therapeutic (LUCENTIS®) with molecular weight close to Ovalbumin

Conditions: target daily release level; for ranibizumab and BEZ about five times the literature IC50

Point of comparison: B1, minimum therapeutic level 0.5 µg/day. Against it:
- CC(C)OC(=O)CCC/C=C\C[C@@H]1[C@@H](CC[C@@H](O)CCc2ccccc2)[C@H](O)C[C@@H]1O [LP, Latanoprost] — lower, 0.105 µg/day
- Bevacizumab [BEZ] — the same, 0.5 µg/day
